Entries after “also recorded” stand apart in the source; their conditions may differ. Where no end group is shown, it is not given here.
Legend:
[1] = test system: Spodoptera litura early third-instar larvae; assay: Microinjection bioassay of insecticidal activity in Spodoptera litura third-instar larvae; assay type: in vivo; settings: for LD50: S. litura larvae, 50% mortality at 24 hours post-injection; for insecticidal activity (in words): S. litura third instar larvae
Experimental: Due to the small amounts of material involved, bioassays are realized on a microscale, using a microinjection technique as described below. Drosophila melanogaster was used first as an insect model since it is amenable to injection of volumes of 50 nl volumes or less, and is very sensitive to spider toxins. In order to confirm activity against an economically important crop pest, Spodoptera litura early third-instar larvae were also used. S. litura is a highly polyphagous species, and is considered an international pest on cotton, tobacco, tomato, cabbage, cauliflower, peanuts, beans and other plants. However, S. litura is more resistant to toxins than D. melanogaster, and it requires injection of 10 to 100-fold higher doses. Application of the microinjection technique to S. litura larvae enabled its use as a test insect while lowering the amounts of sample used in the bioassays. In particular, early 3rd instar larvae (3 to 5 mg) can be injected successfully with volumes up to 800 nl of toxin composition. Lethal and paralytic activity of may be evaluated using D. melanogaster adult flies (˜0.7 mg/fly) and S. litura early third-instar larvae (5-8 mg/larva). See Escoubas, P., Pahna, H. F., Nakajima, T. (1995), “A Microinjection technique using Drosophila melanogaster for bioassay-guided isolation of neurotoxins in arthropod venoms”, Toxicon, 33(12), 1549-1555.
To perform the bioassay of SV toxin peptides, SV toxin peptides are injected into the dorsolateral area of Drosophila melanogaster adult flies or into the pronotum of 3rd instar Spodoptera litura larvae using a glass micropipette mounted on an automatic microinjector (A203XVY Nanoliter injector, WPI Precision Instruments, Sarasota, Fla., USA). Flies and larvae are examined five seconds after injection for evidence of involuntary contraction of body segments.

mice = assay: Intracerebroventricular injection in mice; assay type: in vivo, mice (C57B16); settings: ICV injection, 2 micrograms per mouse
Experimental: Intracerebroventricular injections (0.1 111 crude venom-equivalent in 5 μl of 20 mg/ml BSA and 9 mg/ml NaCl) of each toxin were also performed on 20 g male mice (C57B16).

“PaspI (GCLGEGEKCADWSGPSCCDGFYCSCRSMPYCRCRNNS-NH2; disulfide (positions not given here); also: four disulfide bridges, pairing not given here)” was tested, and the LD50 ([1]; injection) was “not significantly different from the LD50 measured for toxin AaIT”, the LD50 ([1]; injection, listed as PaspI-NH2) was 9.7+4.1 μg/g and the “insecticidal activity (in words)” value ([1]; injection) was “most potent toxin towards S. litura; also recorded: greatest degree of insecticidal activity”.

“PaspII (ACVGDGQRCASWSGPYCCDGYYCSCRSMPYCRCRNNS; disulfide (positions not given here); also: four disulfide bridges, pairing not given here)” was tested, and the “toxic effect on mice” value (mice) was “did have a toxic effect” and the “insecticidal activity (in words)” value ([1]; injection) was “insecticidal activity”.

In the case of “PaspIII (ADCLNEGDWCADWSGPSCCGEMWCSCPGFGKCRCKK; disulfide (positions not given here); also: four disulfide bridges, pairing not given here)”, the “insecticidal activity (in words)” value ([1]; injection) is reported as “insecticidal activity”.

For “PaspIV (ACATKNQRCASWAGPYCCDGFYCSCRSYPGCMCRPNS; disulfide (positions not given here); also: four disulfide bridges, pairing not given here)”, the “insecticidal activity (in words)” value ([1]; injection) was “insecticidal activity; also recorded: putatively least potent”.

“XacI (ECIGGGGGCSVFSGPSCCGGTCKCKFVLIFPKGCHCT)” was tested, and the paralysis of larvae ([1]; isolated peptide, injection, assay procedure of Example 3) was “instantaneous paralysis” and the “time to some signs of recovery of treated larvae post-injection” value ([1]; possibly low injection dose, below the LD50) was 8 to 12 h.

— patent US20020197689A1, “Insecticidal peptides and methods for use of same” (priority 2000, published 2002)
